We go through 1 compound from US20040180093A1, “Polymer compositions with bioactive agent, medical articles, and methods” (3M Innovative Properties Company, priority 2003, published 2004).

The assay relates to Staphylococcus aureus bacteria. Kind of assay: 2 Hours % Live Bacteria Test. The format is cell-based. Conditions: standard solution 0.5 wt-% in DI, calculated Ag+ weight 22,224 μg.

Description: The effectiveness of a sample was tested using a L-7012, Bacterial Viability Kit, available from Molecular Probes (Eugene, Oreg.). The procedure is outlined below using the red, propidium iodide dye, and green, SYTO 9 dye, contained in the kit to stain the live and dead bacteria.
Preparation of bacteria solution: Staphylococcus aureus bacteria were grown in Trypticase (Tryptic) Soy Broth (TSB) medium overnight. Bacteria were concentrated by centrifugation at 10,000× gravity for 15 minutes (min). Supernatant was removed and the pellet was re-suspended in MilliQ water (filtered through a 0.2 μm pore-size filter) or in Butterfield phosphate buffer (from Hardy Diagnostics, Santa Maria, Calif.). […]
Sample preparation: All prototypes were prepared by punching out a 1-inch (2.54-cm) diameter samples using a stainless steel punch; sometimes as indicated in the examples a 1-inch (2.54 cm) disk was further cut with scissors in eighths and then evaluated. […]
Bacteria labeling and Anti-microbial testing: 7 m]L of bacteria solution at initial concentration of approximately 1×10^8 bacteria/mL were pipetted into a 50 mL conical tube containing the sample. […] These solutions were then measured by flow cytometry. Cell viability was measured using the BD FACSCaliber flow cytometer (made by Becton Dickinson & Company, Franklin Lakes, N.J.). […]

As to `O=[N+]([O-])[O-].[Ag+]` [silver nitrate, Silver Nitrate], the “% live bacteria after 2 hours” value is reported as 15.8%.
